# According to ChEMBL document CHEMBL4673260, “Pyridine alkaloids with activity in the central nervous system” (Bioorg Med Chem, 2020):
# Legend:
# [1] = target: Neuronal acetylcholine receptor subunit alpha-7 (Homo sapiens, UniProt P36544)
# Description: Displacement of [125I]alpha-bungarotoxin from human alpha7 nAChR expressed in K28 cell membrane
# Mus musculus [2] = organism: Mus musculus; assay: animal or person
# Description: Antinociceptive activity in mouse
# Mus musculus [3] = organism: Mus musculus; assay: animal or person; remark: listed apart in the source
# Description: Antinociceptive activity against mecamylamine-treated mouse
# Mus musculus [4] = organism: Mus musculus; assay: animal or person; remark: listed apart in the source
# Description: Antinociceptive activity in naloxone treated mouse assessed as induction of Straub-tail response
# [5] = Toxicity in iv dosed rat; type: organism-based; settings: in vivo
# [6] = Displacement of [3H]-(-)-nicotine from rat cerebral cortex nAChR incubated for 60 mins by liquid scintillation spectrometry
# D(3) dopamine receptor = D(3) dopamine receptor (Homo sapiens, UniProt P35462); assay: Displacement of [3H]nicotine from dopamine D3 receptor (unknown origin)
# [7] = Displacement of [3H]nicotine from angiotensin II receptor (unknown origin); set-up: species or system Homo sapiens
# [8] = In vivo agonist activity at nAChR in rat assessed as nor-epinephrine level in cortex at 3.6 micromol/kg, sc by microdialysis relative to control; type: functional; settings: dose 3.6 µmol/kg
# [9] = Displacement of [3H]nicotine from neurokinin receptor (unknown origin); set-up: species or system Homo sapiens
# [10] = target: 5-hydroxytryptamine receptor 3A (Homo sapiens, UniProt P46098); assay: Displacement of […] from 5-hydroxytryptamine receptor 3A (unknown origin)
# [11] = target: Neuropeptide Y receptor type 2 (Homo sapiens, UniProt P49146); assay: Displacement of [3H]nicotine from NPY2R (unknown origin)
# Chain of Neuropeptide Y receptor type 2 (P49146 whole entry): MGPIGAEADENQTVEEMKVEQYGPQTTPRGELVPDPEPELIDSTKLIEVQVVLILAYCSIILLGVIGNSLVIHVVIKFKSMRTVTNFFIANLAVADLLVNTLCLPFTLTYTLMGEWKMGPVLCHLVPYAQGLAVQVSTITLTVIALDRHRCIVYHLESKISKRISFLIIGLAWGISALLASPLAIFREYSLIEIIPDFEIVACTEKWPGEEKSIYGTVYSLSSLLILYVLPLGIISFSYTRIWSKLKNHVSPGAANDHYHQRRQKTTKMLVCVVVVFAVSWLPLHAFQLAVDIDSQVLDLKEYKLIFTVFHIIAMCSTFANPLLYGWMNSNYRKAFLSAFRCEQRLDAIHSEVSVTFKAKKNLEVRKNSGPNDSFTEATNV
# [12] = target: T1, Neuronal acetylcholine receptor; alpha4/beta2 (Rattus norvegicus, UniProt P09483+P12390); assay: Inhbition of [3H] nicotine binding to rat brain alpha4beta2 nAChR
# T1 sequence (P09483 whole entry): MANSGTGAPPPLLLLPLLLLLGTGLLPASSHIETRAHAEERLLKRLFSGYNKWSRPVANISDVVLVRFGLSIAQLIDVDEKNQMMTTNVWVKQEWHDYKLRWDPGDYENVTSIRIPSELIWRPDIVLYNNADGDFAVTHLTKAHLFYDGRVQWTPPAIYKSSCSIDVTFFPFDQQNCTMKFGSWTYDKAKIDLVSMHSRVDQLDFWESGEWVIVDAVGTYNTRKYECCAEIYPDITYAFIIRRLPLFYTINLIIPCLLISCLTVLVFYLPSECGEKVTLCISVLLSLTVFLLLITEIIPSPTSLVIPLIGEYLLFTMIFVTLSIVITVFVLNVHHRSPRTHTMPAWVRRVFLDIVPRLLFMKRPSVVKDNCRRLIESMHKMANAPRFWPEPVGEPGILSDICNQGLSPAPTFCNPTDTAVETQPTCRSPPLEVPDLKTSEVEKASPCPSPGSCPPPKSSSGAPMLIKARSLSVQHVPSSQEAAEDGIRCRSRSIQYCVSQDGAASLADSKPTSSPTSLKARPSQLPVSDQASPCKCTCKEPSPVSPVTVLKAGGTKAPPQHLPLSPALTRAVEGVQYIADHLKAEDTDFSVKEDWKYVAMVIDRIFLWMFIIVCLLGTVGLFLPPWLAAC
# T1 sequence (P12390 whole entry): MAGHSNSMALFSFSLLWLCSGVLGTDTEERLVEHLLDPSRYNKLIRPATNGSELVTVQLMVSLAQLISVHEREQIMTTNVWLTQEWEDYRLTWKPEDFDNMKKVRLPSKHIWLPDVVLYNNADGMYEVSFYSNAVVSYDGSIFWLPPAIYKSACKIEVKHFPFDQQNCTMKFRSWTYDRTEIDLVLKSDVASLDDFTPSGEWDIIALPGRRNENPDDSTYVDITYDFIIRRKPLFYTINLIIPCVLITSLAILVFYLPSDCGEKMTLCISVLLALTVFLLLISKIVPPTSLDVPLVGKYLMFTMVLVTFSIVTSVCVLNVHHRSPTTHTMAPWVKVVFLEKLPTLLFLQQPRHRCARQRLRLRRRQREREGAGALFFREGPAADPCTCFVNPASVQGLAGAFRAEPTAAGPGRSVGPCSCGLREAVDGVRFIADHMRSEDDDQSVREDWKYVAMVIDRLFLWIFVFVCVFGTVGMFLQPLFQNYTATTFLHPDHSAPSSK
# [13] = target: 5-hydroxytryptamine receptor 1A (Homo sapiens, UniProt P08908); assay: Displacement of […] from 5-hydroxytryptamine receptor 1A (unknown origin)
# [14] = Acute toxicity in po dosed mouse administered as single dose for 28 days; type: organism-based; settings: in vivo, time 28 day
# [15] = target: Endothelin receptor type B (Homo sapiens, UniProt P24530); assay: Displacement of [3H]nicotine from Endothelin receptor type B (unknown origin)
# [16] = target: Muscarinic acetylcholine receptor M2 (Homo sapiens, UniProt P08172); assay: Displacement of [3H]nicotine from muscarinic M2 receptor (unknown origin)
# Chain of Muscarinic acetylcholine receptor M2 (P08172 whole entry): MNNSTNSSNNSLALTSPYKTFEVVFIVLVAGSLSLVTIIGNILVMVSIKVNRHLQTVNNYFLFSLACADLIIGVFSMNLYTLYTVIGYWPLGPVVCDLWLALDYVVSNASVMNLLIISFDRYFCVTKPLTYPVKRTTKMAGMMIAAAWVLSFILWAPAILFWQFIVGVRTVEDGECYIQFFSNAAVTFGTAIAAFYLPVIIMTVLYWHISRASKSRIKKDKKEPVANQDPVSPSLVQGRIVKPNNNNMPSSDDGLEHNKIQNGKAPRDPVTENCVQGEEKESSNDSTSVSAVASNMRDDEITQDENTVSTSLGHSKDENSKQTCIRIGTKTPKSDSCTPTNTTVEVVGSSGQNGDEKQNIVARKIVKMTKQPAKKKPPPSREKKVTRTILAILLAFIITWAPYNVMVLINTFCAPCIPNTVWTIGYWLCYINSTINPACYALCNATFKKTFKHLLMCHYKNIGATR
# Endothelin-1 receptor = Endothelin-1 receptor (Homo sapiens, UniProt P25101); assay: Displacement of [3H]nicotine from Endothelin receptor type A (unknown origin)
# Chain of Endothelin-1 receptor (P25101 whole entry): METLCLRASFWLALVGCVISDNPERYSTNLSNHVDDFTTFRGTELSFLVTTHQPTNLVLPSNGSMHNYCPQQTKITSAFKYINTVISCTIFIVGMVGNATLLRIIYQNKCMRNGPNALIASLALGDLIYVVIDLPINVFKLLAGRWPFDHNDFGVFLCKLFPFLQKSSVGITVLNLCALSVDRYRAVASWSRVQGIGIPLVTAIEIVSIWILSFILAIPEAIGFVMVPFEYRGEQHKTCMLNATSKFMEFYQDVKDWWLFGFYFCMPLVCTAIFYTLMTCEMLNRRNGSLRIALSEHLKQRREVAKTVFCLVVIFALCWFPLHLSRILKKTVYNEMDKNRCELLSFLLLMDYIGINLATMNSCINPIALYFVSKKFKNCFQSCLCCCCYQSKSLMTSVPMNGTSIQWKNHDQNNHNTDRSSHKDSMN
# [17] = target: Glutamate [NMDA] receptor; assay: Displacement of [3H]nicotine from NMDA receptor (unknown origin); type: protein-complex assay, Homo sapiens
# [18] = In vivo agonist activity at nAChR in rat assessed as serotonin level in cortex at 3.6 micromol/kg, sc by microdialysis relative to control; type: functional; settings: dose 3.6 µmol/kg
# [19] = In vivo agonist activity at nAChR in rat assessed as acetylcholine level in cortex at 3.6 micromol/kg, sc by microdialysis relative to control; type: functional; settings: dose 3.6 µmol/kg
# [20] = Acute toxicity in po dosed mouse administered as repeated dose for 28 days; type: organism-based; settings: in vivo, time 28 day
# [21] = target: 5-hydroxytryptamine receptor 2A (Homo sapiens, UniProt P28223); assay: Displacement of […] from 5-hydroxytryptamine receptor 2A (unknown origin)
# Chain of 5-hydroxytryptamine receptor 2A (P28223 whole entry): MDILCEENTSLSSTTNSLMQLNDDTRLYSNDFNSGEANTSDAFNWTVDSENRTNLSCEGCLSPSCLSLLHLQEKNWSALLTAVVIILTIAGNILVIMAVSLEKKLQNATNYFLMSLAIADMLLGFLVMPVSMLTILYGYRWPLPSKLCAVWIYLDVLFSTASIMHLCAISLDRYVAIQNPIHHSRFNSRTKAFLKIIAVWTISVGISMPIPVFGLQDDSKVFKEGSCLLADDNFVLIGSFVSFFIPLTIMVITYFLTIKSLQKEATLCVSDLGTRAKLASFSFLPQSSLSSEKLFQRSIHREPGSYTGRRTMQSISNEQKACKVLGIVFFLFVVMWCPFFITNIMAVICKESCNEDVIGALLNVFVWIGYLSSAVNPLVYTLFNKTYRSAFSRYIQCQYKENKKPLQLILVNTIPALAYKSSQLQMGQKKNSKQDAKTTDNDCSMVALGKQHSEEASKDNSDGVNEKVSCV
# [22] = Displacement of [3H]nicotine from Leukotriene B4 receptor (unknown origin); set-up: species or system Homo sapiens
# [23] = target: T1, Neuronal acetylcholine receptor; alpha4/beta2
# Description: Agonist activity at alpha4beta2 nAChR in rat thalamic synaptosomes assessed as increase in 86Rb efflux
# [24] = Acute toxicity in po dosed dog administered as repeated dose for 28 days; type: organism-based, Canis lupus familiaris; settings: in vivo, time 28 day
# [25] = In vivo agonist activity at nAChR in rat assessed as dopamine level in cortex at 3.6 micromol/kg, sc by microdialysis relative to control; type: functional; settings: dose 3.6 µmol/kg
# [26] = Acute toxicity in po dosed dog administered as single dose for 28 days; type: organism-based, Canis lupus familiaris; settings: in vivo, time 28 day
# [27] = target: Cholecystokinin receptor type A (Homo sapiens, UniProt P32238); assay: Displacement of [3H]nicotine from cholecystokinin receptor type A (unknown origin)
# Chain of Cholecystokinin receptor type A (P32238 whole entry): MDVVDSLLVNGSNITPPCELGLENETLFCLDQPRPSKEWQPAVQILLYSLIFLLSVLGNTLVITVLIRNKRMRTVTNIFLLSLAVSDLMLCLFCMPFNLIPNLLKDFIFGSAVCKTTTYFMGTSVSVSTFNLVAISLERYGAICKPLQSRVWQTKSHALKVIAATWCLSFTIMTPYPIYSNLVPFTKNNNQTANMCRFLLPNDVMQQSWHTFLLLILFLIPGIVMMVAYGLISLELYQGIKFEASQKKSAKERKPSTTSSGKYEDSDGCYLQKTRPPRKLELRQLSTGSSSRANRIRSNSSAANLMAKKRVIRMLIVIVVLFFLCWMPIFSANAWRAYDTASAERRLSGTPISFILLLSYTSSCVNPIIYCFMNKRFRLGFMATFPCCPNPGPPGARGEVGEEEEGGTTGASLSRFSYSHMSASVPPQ
# [28] = target: T2, Neuronal acetylcholine receptor; alpha4/beta2 (Rattus norvegicus) (UniProt P09483+P12390); assay: Agonist activity at rat alpha4beta2 expressed in Xenopus oocytes assessed as peak activation at 100 uM relative to control; type: cell-based; settings: Oocyte, filed as agonist
# B2 bradykinin receptor = B2 bradykinin receptor (Homo sapiens, UniProt P30411); assay: Displacement of […] from B2 bradykinin receptor (unknown origin)
# Chain of B2 bradykinin receptor (P30411 whole entry): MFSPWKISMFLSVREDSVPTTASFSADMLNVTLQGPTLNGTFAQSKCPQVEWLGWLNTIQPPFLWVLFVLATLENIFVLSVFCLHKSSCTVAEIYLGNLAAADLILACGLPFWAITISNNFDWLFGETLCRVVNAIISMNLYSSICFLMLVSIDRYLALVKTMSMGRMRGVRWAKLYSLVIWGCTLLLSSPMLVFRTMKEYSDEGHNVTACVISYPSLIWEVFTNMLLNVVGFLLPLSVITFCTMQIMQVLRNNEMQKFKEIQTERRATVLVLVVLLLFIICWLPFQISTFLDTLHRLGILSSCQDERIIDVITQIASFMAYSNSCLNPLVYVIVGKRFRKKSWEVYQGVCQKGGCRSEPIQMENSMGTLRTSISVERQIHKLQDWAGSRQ
# Thromboxane A2 receptor = Thromboxane A2 receptor (Homo sapiens, UniProt P21731); assay: Displacement of [3H]nicotine from Thromboxane A2 (unknown origin)
# Histamine H3 receptor = Histamine H3 receptor (Homo sapiens, UniProt Q9Y5N1); assay: Displacement of [3H]nicotine from Histamine H3 receptor (unknown origin)
# Chain of Histamine H3 receptor (Q9Y5N1 whole entry): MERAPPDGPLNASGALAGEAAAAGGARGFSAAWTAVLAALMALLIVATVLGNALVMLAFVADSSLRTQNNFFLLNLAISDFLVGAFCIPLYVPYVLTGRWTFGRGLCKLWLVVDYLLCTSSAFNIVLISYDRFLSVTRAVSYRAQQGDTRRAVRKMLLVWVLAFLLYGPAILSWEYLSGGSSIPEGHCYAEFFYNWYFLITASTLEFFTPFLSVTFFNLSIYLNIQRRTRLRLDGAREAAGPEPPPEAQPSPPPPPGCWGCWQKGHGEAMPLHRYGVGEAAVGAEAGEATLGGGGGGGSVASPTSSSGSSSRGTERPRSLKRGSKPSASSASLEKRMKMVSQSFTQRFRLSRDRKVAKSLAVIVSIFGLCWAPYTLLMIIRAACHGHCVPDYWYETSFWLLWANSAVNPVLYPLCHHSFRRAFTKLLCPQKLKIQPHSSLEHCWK
# Rattus norvegicus [29] = organism: Rattus norvegicus; assay: Agonist activity at nAChR in rat striatal synaptosomes assessed as [3H]dopamine release relative to tetramethylammonium; type: subcellular; settings: Striatum, filed as agonist
# [30] = Displacement of [3H]nicotine from dopamine D4.2 receptor (unknown origin); set-up: species or system Homo sapiens
# [31] = target: Muscarinic acetylcholine receptor M3 (Homo sapiens, UniProt P20309); assay: Displacement of [3H]nicotine from muscarinic M3 receptor (unknown origin)
# Chain of Muscarinic acetylcholine receptor M3 (P20309 whole entry): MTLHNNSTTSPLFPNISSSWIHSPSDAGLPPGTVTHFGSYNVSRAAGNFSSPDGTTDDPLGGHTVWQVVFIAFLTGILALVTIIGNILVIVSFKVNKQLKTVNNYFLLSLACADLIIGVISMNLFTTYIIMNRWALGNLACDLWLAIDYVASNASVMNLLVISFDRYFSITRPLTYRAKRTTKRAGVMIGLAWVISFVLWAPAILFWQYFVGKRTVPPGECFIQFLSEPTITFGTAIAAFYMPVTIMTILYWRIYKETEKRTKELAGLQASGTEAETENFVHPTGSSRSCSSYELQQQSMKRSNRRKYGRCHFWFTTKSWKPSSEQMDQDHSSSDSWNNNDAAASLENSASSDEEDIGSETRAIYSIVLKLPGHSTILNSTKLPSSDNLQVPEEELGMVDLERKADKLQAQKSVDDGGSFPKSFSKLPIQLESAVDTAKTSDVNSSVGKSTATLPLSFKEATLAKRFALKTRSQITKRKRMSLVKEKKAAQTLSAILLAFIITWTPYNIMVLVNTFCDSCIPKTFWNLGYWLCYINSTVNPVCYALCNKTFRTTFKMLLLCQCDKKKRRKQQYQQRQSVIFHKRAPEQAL
# [32] = target: Gastrin/cholecystokinin type B receptor (Homo sapiens, UniProt P32239); assay: Displacement of [3H]nicotine from cholecystokinin receptor type B (unknown origin)
# [33] = Displacement of [3H]nicotine from sodium channel site2 (unknown origin); set-up: species or system Homo sapiens
# Rattus norvegicus [34] = assay: Cognitive enhancing effect in Wistar rat assessed as reversal of scopolamine-induced amnesia at 0.6 micromol/kg, sc by passive-avoidance test relative to control; type: functional; settings: dose 0.6 µmol/kg
# [35] = target: Muscarinic acetylcholine receptor M1 (Homo sapiens, UniProt P11229); assay: Displacement of [3H]nicotine from muscarinic M1 receptor (unknown origin)
# Rattus norvegicus [36] = assay: Memory enhancing effect in Sprague-Dawley rat model of ibotenic-acid-induced impairment of forebrain cholinergic projection system assessed as improvement in reference memory at 0.36 to 1.4 micromol/kg, po by radial arm maze test relative to control; type: functional; settings: dose 0.36-1.4 µmol/kg
# [37] = target: T2, Neuronal acetylcholine receptor; alpha4/beta2 (Rattus norvegicus); assay: Agonist activity at alpha4beta2 nAChR in rat thalamic synaptosomes assessed as 86Rb efflux relative to tetramethylammonium; type: subcellular; settings: Thalamus, filed as agonist
# Rattus norvegicus [38] = assay: Memory enhancing effect in rat model of mecamylamine-induced amnesia assessed as decrease in latency to find platform at 0.3 to 3 micromol/kg, po by water-navigation test relative to control; type: functional; set-up: scale not given: the % may be the effect or the level left; settings: dose 0.3-3 µmol/kg; at 0.3 to 3 µmol/kg
# Mus musculus [39] = assay: Anti-analeptic activity in mouse assessed as reduction in lethality at 125 to 150 mg/kg coadministered with camphor relative to control; type: functional; set-up: scale not given: the % may be the effect or the level left; settings: dose 125-150 mg/kg
# [40] = Protection against strychnine-induced mortality in mouse at 100 mg/kg; type: ADME, organism-based; settings: in vivo
# Mus musculus [41] = assay: Anti-analeptic activity in mouse assessed as reduction in convulsion at 125 to 150 mg/kg coadministered with camphor relative to control; type: functional; set-up: scale not given: the % may be the effect or the level left; settings: dose 125-150 mg/kg
# Mus musculus [42] = assay: Anti-analeptic activity in mouse assessed as reduction in corazol-induced convulsion at 75 mg/kg relative to control; type: functional; set-up: scale not given: the % may be the effect or the level left
# [43] = Protection against caffeine-induced mortality in mouse at 250 mg/kg; type: ADME, organism-based; settings: in vivo
# Mus musculus [44] = assay: Anti-analeptic activity in mouse assessed as reduction in corazol-induced convulsion at 25 mg/kg relative to control; type: functional; set-up: scale not given: the % may be the effect or the level left
smiles,measurement,setting,value
Clc1ccc(C2CC3CCC2N3)cn1 (stereo in doubt; (+)) [EPIBATIDINE],Ki,[1],0.0022 µM
same,ED50,Mus musculus [2],0.0136 mg/kg
same,ED50,Mus musculus [3],0.289 mg/kg
same,ED50,Mus musculus [4],0.02 mg/kg
same,LD50,[5],< 0.125 µmol/kg
same,IC50,[6],0.0001 µM
CN(C)CC/C=C/c1cccnc1,IC50,D(3) dopamine receptor,> 10 µM
same,IC50,[7],> 10 µM
same,Activity,[8],150%
same,IC50,[9],> 10 µM
same,IC50,[10],> 10 µM
same,IC50,[11],> 10 µM
same,Ki,[12],0.026 µM
same,IC50,[13],> 10 µM
same,LD50 at 672 h,[14],1.8e+06 µmol/kg
same,IC50,[15],> 10 µM
same,IC50,[16],> 10 µM
same,IC50,Endothelin-1 receptor,> 10 µM
same,IC50,[17],> 10 µM
same,Activity,[18],170%
same,Activity,[19],190%
same,LD50 at 672 h,[20],1.8e+06 µmol/kg
same,IC50,[21],> 10 µM
same,IC50,[22],> 10 µM
same,EC50,[23],0.732 µM
same,LD50 at 672 h,[24],1.8e+06 µmol/kg
same,Activity,[25],150%
same,LD50 at 672 h,[26],1.8e+06 µmol/kg
same,IC50,[27],> 10 µM
same,Activity,[28],492%
same,IC50,B2 bradykinin receptor,> 10 µM
same,IC50,Thromboxane A2 receptor,> 10 µM
same,IC50,Histamine H3 receptor,> 10 µM
same,Emax,Rattus norvegicus [29],81%
same,IC50,[30],> 10 µM
same,IC50,[31],> 10 µM
same,IC50,[32],> 10 µM
same,IC50,[33],> 10 µM
same,Activity,Rattus norvegicus [34],50%
same,IC50,[35],> 10 µM
same,fold change (FC),Rattus norvegicus [36],2
same,Emax,[37],79%
same,Activity,Rattus norvegicus [38],40%
COc1c2c(nc3occc13)[C@@](CC=C(C)C)(OC)[C@H](O)CC2,Activity,Mus musculus [39],100%
same,Activity,[40],100%
same,Activity,Mus musculus [41],50%
same,Activity,Mus musculus [42],100%
same,Activity,[43],80%
same,Activity,Mus musculus [44],50%
